Results on two compounds are retold here after patent publication US10925867B2, “Immunotherapeutic dosing regimens comprising pomalidomide and an anti-CS1 antibody for treating cancer” (Bristol-Myers Squibb Company, priority 2015, dated 2021).

One series concerns the target T1, SLAMF7 (Homo sapiens, UniProt Q9NQ25).
T1 construct: endogenous in cells; host or cells: bone marrow plasma (myeloma) cells from multiple myeloma subjects treated with elotuzumab plus lenalidomide/dexamethasone
Put plainly: Saturation of SLAMF7 on bone marrow plasma cells, Phase 2 study of elotuzumab and lenalidomide/dexamethasone. It is filed as in vivo. Particulars: doses ≥10 mg/kg. As for the experimental part:
FIG. 7. Saturation of SLAMF7 Target on Bone Marrow Myeloma Samples from Subjects Treated in a Phase 2 Study of Elotuzumab and Lenalidomide/Dexamethasone (HuLuc63).
Following elotuzumab dosing of 10 and 20 mg/kg in combination with lenalidomide, the observed steady-state Cmin values consistently remained above 70 μg/mL, the minimum efficacious trough concentrations (Lonial et. al., J Clin Oncol. 30(16):1953-1959. (2012)). […] Given the lack of difference in efficacy, safety, PK and SLAMF7 saturation between 10 and 20 mg/kg, the 10 mg/kg weekly for the first 2 cycles followed by 20 mg/kg monthly thereafter, was selected to improve patient convenience and compliance.

Series [1] in a line: Infusion reactions in Study CA204004. It is filed as in vivo, human. An excerpt:
Elotuzumab can cause infusion reactions. Infusion reactions were reported in approximately 10% of patients treated with elotuzumab, lenalidomide and dexamethasone in Study CA204004 and in 7% of patients treated with elotuzumab, bortezomib and dexamethasone in Study CA204009. All reports of infusion reaction were ≤Grade 3. Grade 3 infusion reactions occurred in 1% of patients in Study CA204004 and in no patients in Study CA204009. The most common symptoms of an infusion reaction included fever, chills and hypertension. In Study CA204004, 5% of patients required interruption of the administration of elotuzumab due to infusion reaction for a median of 25 minutes and 1% of patients discontinued due to infusion reactions. In Study CA204009, 20% of patients required interruption of the administration of elotuzumab for a median of 40 minutes and none discontinued due to infusion reactions. Of the patients who experienced an infusion reaction, 70% (23/33) in Study CA204004 and 80% (4/5) in Study CA204009 had them during the first dose.

A short description of series [2]: Infusion reactions by infusion rate, phase 2 portion of CA204003 (1703). It is filed as in vivo, human. As to the method:
The maximum infusion rate of 2 ml/min was initially explored in the phase 1 and 2 elotuzumab clinical trials. However, the phase 2 portion of the CA204003 (1703) and the CA204009 studies allowed an infusion rate escalation in subjects without infusion reactions for a minimum of 4 cycles of study therapy at 2 ml/min. The infusion rates are allowed to increase by 1 ml/min per cycle, up to 5 ml/min.
Preliminary safety data of the 5 ml/minute infusion rate are based on an analysis of subjects who escalated the elotuzumab infusion to 5 ml/minute in the CA204003 (1703) and CA204009 studies. In the phase 2 portion of the CA204003 (1703) study, 33% of all study infusions and 42.5% of subjects received infusions at 5 ml/min. In subjects who were administered infusions ≤2 ml/min, there were 7 grade 1-2 infusion reactions, and 1 grade 3-4 infusion reaction. […] In the randomized phase 2 CA204009 study, 27% of all subjects and 9% of all infusions on the investigational arm received infusions at 5 ml/min.

The nature of series [3]: Study CA204112, elotuzumab administration in <1 hour (5 ml/min). Particulars: infusion rate escalated to 5 ml/min by the third dose; with lenalidomide/dexamethasone. It is filed as in vivo, human. As to the method:
Preliminary data are available for an ongoing study CA204112 with elotuzumab administration in <1 hour (5 ml/min) combined with lenalidomide/dexamethasone in newly diagnosed and relapsed/refractory myeloma. In this trial, the infusion rate was escalated to 5 ml/min by the third elotuzumab dose.

Series [4] deals with relapsed or refractory multiple myeloma. Particulars: with lenalidomide and low-dose dexamethasone; 10 mg/kg dose; cited from earlier work.
Series [5] relates to primary multiple myeloma cells. Particulars: in the presence of peripheral lymphocytes; cited from earlier work.
A further series concerns NK cells. Particulars: independent of the Fc portion of the antibody; cited from earlier work.
For another series, the system named is human myeloma xenografts. Particulars: intraperitoneally (IP), dose-dependent; cited from earlier work.
For a further series, the system named is multiple myeloma. Particulars: cited from earlier work.
Series [6] deals with relapsed and refractory multiple myeloma. Particulars: MM-002, cited from earlier work.
Series [7] concerns relapsed and refractory MM. Particulars: cited from earlier work.
[8] abbreviates: 38 subjects, including 22 with dexamethasone added.

Like-named read-outs stand apart in the source and are kept apart here.

T1 sequence (Q9NQ25 23-335): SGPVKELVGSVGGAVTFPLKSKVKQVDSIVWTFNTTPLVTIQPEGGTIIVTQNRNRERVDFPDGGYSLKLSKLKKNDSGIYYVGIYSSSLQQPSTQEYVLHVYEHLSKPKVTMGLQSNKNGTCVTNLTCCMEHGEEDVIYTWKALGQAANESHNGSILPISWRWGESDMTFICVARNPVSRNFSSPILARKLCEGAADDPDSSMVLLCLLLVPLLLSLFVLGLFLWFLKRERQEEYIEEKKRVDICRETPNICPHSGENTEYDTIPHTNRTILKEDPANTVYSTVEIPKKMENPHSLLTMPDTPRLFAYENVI

For “Elotuzumab: humanized monoclonal IgG1 antibody directed against CS-1; VL SEQ ID NO:1, VH SEQ ID NO:2”, the “saturation of SLAMF7 on bone marrow plasma cells” value with SLAMF7 was “complete saturation”. In addition, in series [1], the “median duration of interruption” value turned out to be 25 min, the “patients discontinued due to infusion reactions” value is 1%, the “patients requiring interruption of administration due to infusion reaction” value came out at 5% and the “patients with Grade 3 infusion reactions” value is on record as 1%. Further, the “patients with infusion reaction who had it during the first dose” value in series [1] came to 70%. The “patients with infusion reactions” value in series [1] (with lenalidomide and dexamethasone) is reported as “approximately 10%”. In addition, in series [2] (infusion rates >2 ml/min), the “grade 3-4 infusion reactions” value was “no grade 3-4 infusion reactions” and the “number of grade 1-2 infusion reactions” value was 1. Moreover, in [2] (infusions ≤2 ml/min), the “number of grade 1-2 infusion reactions” value is 7 and the “number of grade 3-4 infusion reactions” value is recorded as 1. Moreover, in [3], the “frequency of infusion reactions” value was “no increased frequency of infusion reactions”. In addition, in [4], the PFS was 33 month and the response rate is on record as 92%. Further, the ADCC result in [5] is on record as “induces significant antibody-dependent cellular cytotoxicity (ADCC)”. Also, in the series on NK cells, the NK cell activation result is “activate NK cells by up-regulation of CD69 and granzyme B expression”. Moreover, the tumor growth entry with human myeloma xenografts is given as “inhibits tumor growth of human myeloma xenografts”.
For the compound `Nc1cccc2c1C(=O)N(C1CCC(=O)NC1=O)C2=O` (racemic) [Pomalidomide, (RS)-4-amino-2-(2,6-dioxo-piperidin-3-yl)-isoindole-1,3-dione], in the series with multiple myeloma (2 mg/day), the “ORR (≥PR)” value is recorded as 29%, the “median PFS” value was 5.5 months and the “median duration of response” value is given as 14.1 months. Moreover, in the series on multiple myeloma (4 mg/day), the “ORR (≥PR)” value was 35%, the “median PFS” value is reported as 6.9 months and the “median duration of response” value was 14.5 months. In addition, in series [6], the “Grade 3/4 anemia” value is recorded as 24%, the “Grade 3/4 neutropenia” value was 48%, the “Grade 3/4 thrombocytopenia” value was 22% and the “ORR (≥PR)” value is 18%. In series [6], the fatigue is 11%, the “frequency of febrile neutropenia” value is recorded as 5%, the “incidence of DVT” value is listed as 3% and the “median OS” value was 13.6 months. In series [6], the median response duration is listed as 10.7 months and the pneumonia is 15%. The “median PFS” value in series [6] (pomalidomide 4 mg/day d1-21 of 28, dexamethasone 40 mg/week, median follow-up 14.2 months) is 2.7 months. In addition, the “number of DLTs (Grade 4 neutropenia)” value in series [7] (5 mg daily Days 1-21 of 28-day cycle) is 4. In [7] (38 subjects, 2-5 mg), the “treatment-emergent Grade 3/4 anemia” value is reported as 21%, the “treatment-emergent Grade 3/4 fatigue” value was 16%, the “treatment-emergent Grade 3/4 neutropenia” value is 53% and the “treatment-emergent Grade 3/4 thrombocytopenia” value was 18%. Besides, in series [7] (setting [8]), the “subjects achieving CR” value is on record as 3%, the “subjects achieving ≥MR or better” value is recorded as 42% and the “subjects achieving ≥PR” value was 21%. In addition, the MTD in series [7] (Days 1-21 of 28-day cycle) is 4 mg/day.
